Test results reported in patent US20260022098A1, “BULLEYACONITINE A DERIVATIVE WITH ANALGESIC ACTIVITY, AND PREPARATION METHOD AND APPLICATION THEREOF” (priority 2023, published 2026).
Where two headings read alike, the source gives them in different places.

Tests used:
[1] = tested on: LPS-induced RAW 264.7 cells; assay: Griess assay, inhibition of NO release in LPS-induced RAW 264.7 cells; format: cell-based; conditions: Griess method, compound at 30 M (so in the source), 22 h
Description: (§1) The effect of the compound to be tested on viability of RAW 264.7 cells at a concentration of […] was assessed through MTT assay (Methylthiazolyldiphenyl-tetrazolium bromide assay), and the inhibition on NO release in the inflammatory response of LPS-induced RAW 264.7 cells at 30 µM was determined through Griess method. Specific methods were described as follows.
RAW264.7 cells beyond third passage were added to a culture medium and gently pipetted to detach, forming a cell suspension. 10 μL of the cell suspension was applied onto a hemocytometer slide for counting, and cells were seeded into a 96-well plate at a density of 3×10^4 cells per well with 100 μL of the cell suspension per well. After incubated at 37° C. with […] for 24 h, supernatant was removed. The blank group received 100 μL of DMSO (1/1000 dilution) per well, a LPS (lipopolysaccharide) group received 100 μL of DMSO (1/1000 dilution) per well, and the experimental groups received 100 μL of the test samples per well. The LPS group received 1 μg/ml of LPS by […] per well, and the experimental groups received […] of LPS by 3 μg per well. After 22 h, 50 μL of supernatant was transferred into another 96-well plate, added with Griess Reagent I in a NO assay kit by 50 μL per well, then added with Griess Reagent II by 50 μL per well, and subjected to an absorbance test at 562 nm. Nitric oxide (NO) concentration was calculated based on a standard curve, which was specifically as follows: NO inhibition rate (%)=(ODLPS−ODTest)/(ODLPS−ODBlank)×100).

[2] = tested on: Kunming mice; assay: Analgesic activity by acetic acid-induced writhing method (writhing inhibition rate, ED50); format: in vivo; conditions: mice, subcutaneous; for ED50: Probit regression; for inhibition in vivo at 0.05 mg/kg / inhibition in vivo at 0.5 mg/kg: read-out: Analgesia rate (%) ± SEM
Outline: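 Kunming mice (22±2 g, 1:1 sex, 12 h fasted, 10/group) got compound s.c. (dissolved 1:1 molar with 0.1 mol/L HCl, diluted in saline); 0.7% acetic acid i.p. 15 min later, writhes counted over 15 min. Inhibition rate vs saline blank; ED50 by Probit regression over ≥5 doses.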

[3] = Acute toxicity / median lethal dose (LD50) determination, subcutaneous injection; format: in vivo, mice; design: key to Acute toxicity: if death occurred, (+) represented as positive; if no death occurred, (−) represented as negative; conditions: both sexes, Kunming, mouse, in vivo, sc; mice, subcutaneous, survival within 24 h, Probit regression; >X = no death or toxic symptoms at X mg/kg
Outline: (§2)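 Kunming mice (22±2 g, 1:1 male:female, fasted 12 h), 10 per group, given compound subcutaneously at 0.1 mL/10 g in saline after 1:1 molar dissolution in 0.1 mol/L HCl. At least 5 proportional dose groups set from a 20 mg/kg pilot; 24 h survival, LD50 by Probit regression.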

[4] = tested on: Kunming mice; assay: as above; format: in vivo; design: key to Acute toxicity: if death occurred, (+) represented as positive; if no death occurred, (−) represented as negative; conditions: for Acute toxicity: mice administered 20 mg/kg subcutaneously, presence of death within 24 h
Outline: as §2

[5] = tested on: RAW 264.7 cells; assay: MTT assay, viability of RAW 264.7 cells; format: cell-based; conditions: compound diluted to 30 mol/L (so in the source), 12 h
Description: as §1
An MTT solution (5 mg/mL) was prepared with a PBS buffer, filter-sterilized through a 0.22 μm filter membrane, and stored protected from light at low temperature. Each compound was dissolved in DMSO to prepare a 50 mmol/L stock solution, and stored from light at low (frozen) temperature. The stock solution was diluted to 30 mol/L with DMEM (Dulbecco's modified Eagle's medium) containing 10% FBS (fetal bovine serum). RAW264.7 cells beyond third passage were added to a culture medium and gently pipetted to detach, forming a cell suspension. 10 μL of the cell suspension was applied onto a hemocytometer slide for counting, and cells were seeded into 96-well plates at a density of 6×10^3 cells per well with 100 μL of the cell suspension per well. After incubated at 37° C. with 5% CO2 for 24 h, supernatant was removed. A zero-adjustment group (CO group) received 100 μL of medium per well, the blank group (CK group) received 100 μL of DMSO (1/1000 dilution) per well, and the experimental groups received 100 μL of the test samples per well. After 12 h, supernatant was removed, and […] of MTT solution was added into each well at 120 μL per well. After incubated in COz at a constant temperature for 4 h, supernatant was removed, and DMSO was added into each well by 150 μL per well. The mixture was shaken at 50 r/min for 10 min and subjected to an absorbance test at 492 nm. Relative cell viability (x) was calculated through a formula as follows: relative cell viability (%)=(ODTest−ODCO)/(ODCK−ODCO)×100%.

[6] = tested on: Kunming mice; assay: Calculation of therapeutic index (TI = LD50/ED50); format: in vivo
Description: (3) Calculation of Therapeutic Index (TI)
The therapeutic index of each compound was calculated based on the median effective dose and the median lethal dose, which were specifically as follows: therapeutic index (TI)=median lethal dose (LD50)/median effective dose (ED50).

[7] = tested on: Kunming mice; conditions: reported value used as preliminary screening concentration; cited from earlier work
[8] = Mus musculus, sc, acetic acid-induced writhing, read-out: ED50
[9] = Mus musculus, sc, dosing concentration 0.05 mg/kg, acetic acid-induced writhing
[10] = Mus musculus, sc, dosing concentration 0.5 mg/kg, acetic acid-induced writhing

Molecule	Inflammatory NO inhibition rate [1] [%]	ED50 [2, 8] [mg/kg]	inhibition in vivo at 0.05 mg/kg [2, 9] [%]	LD50 [3] [mg/kg]	Acute toxicity [4]	RAW cell viability [5]	TI [6]	inhibition in vivo at 0.5 mg/kg [2, 10] [%]	ED50 ([2]; acetic acid-induced writhing) [mg/kg]	Analgesia rate (%) ± SEM ([2]; dosing concentration 0.05 mg/kg, acetic acid-induced writhing) [%]	Analgesia rate: unable to test owing to significant toxicity or death in mice ([2]; dosing concentration 0.5 mg/kg)	reported median effective dose (ED50) [7] [mg/kg]	LD50 ([4]; mice, subcutaneous, survival within 24 h, Probit regression, >X = no death or toxic symptoms at X mg/kg) [mg/kg]
CCO[C@]12C[C@H](OC)[C@@]3(OC(=O)c4ccco4)CC(C1[C@H]3OC(=O)c1ccco1)[C@]13C4[C@@H](OC)C2[C@H]1N(CC)C[C@]4(COC)CC[C@@H]3OC (stereo partly shown) [Compound 6]	22 ± 4.41	0.069	59.8 ± 2.3	> 600	−	92.23 ± 1.29 ns %	>8695.7						
CCO[C@]12C[C@H](OC)[C@@]3(OC(=O)c4ccco4)CC(C1[C@H]3OC(=O)c1ccc(OC)cc1)[C@]13C4[C@@H](OC)C2[C@H]1N(CC)C[C@]4(COC)CC[C@@H]3OC (stereo partly shown) [Compound 15]	5 ± 2.17	0.073	57.6 ± 1.3	56.4	−	104.18 ± 6.16 ns %	773						
CCN1C[C@]2(COC)CC[C@H](OC)[C@@]34C5C[C@]6(OC(=O)c7cccnc7)[C@@H](OC)C[C@@](OC(C)=O)(C5[C@H]6OC(=O)c5ccc(OC)cc5)C([C@H](OC)C23)[C@@H]14 (stereo partly shown) [Compound 29]	20 ± 1.12	1.48	47.9 ± 1.8	41.2	−	116.43 ± 15.6 ^ %	27.9	65.6 ± 1.3					
CCO[C@]12C[C@H](OC)[C@@]3(OC(=O)c4ccccc4F)CC(C1[C@H]3OC(=O)c1ccccc1F)[C@]13C4[C@@H](OC)C2[C@H]1N(CC)C[C@]4(COC)CC[C@@H]3OC (stereo partly shown) [Compound 69]	40 ± 3.46	0.106	40.3 ± 0.7	> 100	−	95.11 ± 5.66 ns %	>943.4	60.6 ± 1.9					
Bulleyaconitine A [reference compound]	13 ± 6.84				+	85.80 ± 7.31 ^ %	19.2		0.048	54.80 ± 1.8	−^a	0.05	0.92
CCO[C@]12C[C@H](OC)[C@@]3(OC(=O)c4ccc(F)cc4)CC(C1[C@H]3OC(=O)c1ccc(OC)cc1)[C@]13C4[C@@H](OC)C2[C@H]1N(CC)C[C@]4(COC)CC[C@@H]3OC (stereo partly shown) [Compound 60]	2 ± 2.82	0.122	50 ± 1.4	> 100	−	96.09 ± 7.95 ns %	>819.7						
